Measurements from patent US11208412B2 (DAEGU-GYEONGBUK MEDICAL INNOVATION FOUNDATION, priority 2017, dated 2021).

Tests used:
[1] = molecular target: T1, kinases of the scanMAX Kinase assay panel (Homo sapiens, UniProt O00329); experiment: Kinase selectivity, DiscoverX scanMAX Kinase assay panel (% control); format: binding; conditions: PIK3CD; 1 uM
T1 construct: purchased DiscoverX Co. (contract measurement) scanMAX Kinase assay panel
T1 sequence (O00329 1-1044): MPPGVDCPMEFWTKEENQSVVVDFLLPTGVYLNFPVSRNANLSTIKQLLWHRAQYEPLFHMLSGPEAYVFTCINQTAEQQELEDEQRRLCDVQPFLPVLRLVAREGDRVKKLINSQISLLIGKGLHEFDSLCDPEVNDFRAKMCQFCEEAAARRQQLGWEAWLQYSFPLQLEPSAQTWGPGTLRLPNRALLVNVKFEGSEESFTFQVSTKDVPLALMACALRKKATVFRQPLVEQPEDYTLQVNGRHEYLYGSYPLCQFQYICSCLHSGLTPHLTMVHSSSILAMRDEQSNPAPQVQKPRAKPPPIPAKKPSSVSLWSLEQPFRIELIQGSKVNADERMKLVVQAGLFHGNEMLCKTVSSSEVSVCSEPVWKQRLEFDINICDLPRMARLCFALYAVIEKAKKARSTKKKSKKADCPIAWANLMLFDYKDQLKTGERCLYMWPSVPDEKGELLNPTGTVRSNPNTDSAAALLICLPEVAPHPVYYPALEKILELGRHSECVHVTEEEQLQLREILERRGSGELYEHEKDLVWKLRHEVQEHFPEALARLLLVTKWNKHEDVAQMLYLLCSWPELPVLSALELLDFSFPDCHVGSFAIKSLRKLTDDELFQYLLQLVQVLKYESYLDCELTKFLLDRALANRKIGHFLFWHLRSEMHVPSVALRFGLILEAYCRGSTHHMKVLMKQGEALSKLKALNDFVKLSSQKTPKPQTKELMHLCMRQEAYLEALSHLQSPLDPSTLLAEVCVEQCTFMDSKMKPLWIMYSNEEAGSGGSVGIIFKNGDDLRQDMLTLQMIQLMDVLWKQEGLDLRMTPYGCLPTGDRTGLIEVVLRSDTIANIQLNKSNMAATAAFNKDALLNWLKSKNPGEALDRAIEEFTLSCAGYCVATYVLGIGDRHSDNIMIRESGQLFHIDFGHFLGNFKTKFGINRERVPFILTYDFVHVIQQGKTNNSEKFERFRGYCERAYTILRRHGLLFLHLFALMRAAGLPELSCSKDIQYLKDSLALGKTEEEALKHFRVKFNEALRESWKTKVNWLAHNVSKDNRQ
Procedure, shortened: (§1)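 Compounds were tested at 1 uM (in DMSO) against each panel kinase. % control was calculated as (compound − positive control)/(negative control − positive control)×100, where the positive control gives 0% and DMSO gives 100%. Activity toward a kinase was called at % control <35%.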

[2] = molecular target: T2, kinases of the scanMAX Kinase assay panel (Homo sapiens, UniProt P43403); experiment: as above; format: binding; conditions: kinase ZAP70; 1 uM in DMSO
T2 construct: purchased DiscoverX Co. (contract measurement) scanMAX Kinase assay panel
T2 sequence (P43403 1-619): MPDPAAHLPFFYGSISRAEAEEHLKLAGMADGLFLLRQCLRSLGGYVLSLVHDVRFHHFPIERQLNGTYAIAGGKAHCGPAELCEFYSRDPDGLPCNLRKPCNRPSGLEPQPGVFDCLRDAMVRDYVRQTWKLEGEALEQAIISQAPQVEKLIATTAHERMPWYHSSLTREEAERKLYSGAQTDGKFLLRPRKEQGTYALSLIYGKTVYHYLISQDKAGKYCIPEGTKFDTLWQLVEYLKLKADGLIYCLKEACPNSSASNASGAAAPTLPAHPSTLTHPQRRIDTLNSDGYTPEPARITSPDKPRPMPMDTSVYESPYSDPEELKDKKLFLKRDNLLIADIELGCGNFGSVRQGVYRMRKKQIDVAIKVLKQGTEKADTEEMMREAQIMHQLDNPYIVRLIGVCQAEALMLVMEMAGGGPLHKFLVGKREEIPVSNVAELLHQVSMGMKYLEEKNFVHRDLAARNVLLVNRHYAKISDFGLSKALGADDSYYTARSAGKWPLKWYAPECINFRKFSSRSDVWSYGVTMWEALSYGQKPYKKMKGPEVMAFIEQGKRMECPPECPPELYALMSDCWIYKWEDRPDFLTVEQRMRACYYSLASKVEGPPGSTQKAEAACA
Procedure, shortened: as §1

Row | Structure (SMILES) | remaining binding at 1 µM [1] | remaining binding at 1 µM [2]
1 | CNc1nc(Nc2ccc(C(=O)N3CCOCC3)cc2OC)nc2[nH]cc(C#N)c12 [Example 1, 2-((2-methoxy-4-(morpholine-4-carbonyl)phenyl)amino)-4-(methylamino)-7H-pyrrolo[2,3-d]pyrimidine-5-carbonitrile] | 99% | 35%
2 | CC1(Nc2nc(Nc3cnn([C@H]4CCN(C5COC5)C[C@@H]4F)c3Cl)nc3[nH]cc(C#N)c23)CC1 [Example 52, 2-((5-chloro-1-((3S,4S)-3-fluoro-1-(oxetane-3-yl)piperidine-4-yl)-1H-pyrazole-4-yl)amino)((1-methylcyclopropyl)amino)-7H-pyrrolo[2,3-d]pyrimidine-5-carbonitrile] | 9.4% | 2.2%
3 | CCNc1nc(Nc2ccc(C(=O)N3CCC(N4CCOCC4)CC3)cc2OC)nc2[nH]cc(C(F)(F)F)c12 [Example 104, (4-((4-(ethylamino)-5-(trifluoromethyl)-7H-pyrrolo[2,3-d]pyrimidine-2-yl)amino)-3-methoxyphenyl)(4-morpholinopiperidine-1-yl)methanone] | 78% | 100%
